Results reported in ChEMBL document CHEMBL6178013, “Ferroptosis of Cancer Cells via Tubulin Degradation and Mitochondrial Dysfunction: A Novel Mechanism of Anticancer Effect for Small-Molecule Anion Transporters” (J Med Chem, 2025).
Values after ≈ are worked out from the molar mass of the structure shown. Active and inactive are the calls of the source. The rule behind the calls is not given here.

Key:
[1] = tested on: HeLa; assay: Induction of mitochondrial membrane permeability in human HeLa cells assessed as green fluorescence at 0.5 uM incubated for 24 hrs by JC-1 staining based analysis (reference value: 1.5 %); type: functional
[2] = tested on: HeLa; assay: Cytotoxicity against human HeLa cells assessed as decrease in cell viability at 0.01 to 10 uM pretreated with Fer-1 followed by compound addition by MTT assay; type: functional, cell-based; settings: dose 0.01-10 µM
[3] = AUC (0 to t) in male CD-1 mouse at 1 mg/kg, iv measured for 0.083 to 48 hrs by HPLC/MS/MS analysis; type: ADME, organism-based; settings: in vivo, time 0.083-48 hrs
[4] = tested on: Chloride; assay: Binding affinity to chloride anions assessed as chloride efflux in egg-yolk L-alpha-phosphatidylcholine liposome model harboring intravesicular RbCl/extravesicular NaNO3
[5] = tested on: HeLa; assay: Induction of beta III-tubulin degradation in human HeLa cells up to 10 uM preincubated with MG132 followed by compound addition measured after 24 hrs by immunoblotting analysis; type: cell-based
[6] = tested on: HeLa; assay: Induction of mitochondrial membrane permeability in human HeLa cells at 0.625 to 5 uM incubated for 24 hrs by JC-1 staining based analysis; type: functional, cell-based; settings: dose 0.625-5 µM
[7] = Toxicity in male Balb/C nude mouse xenografted with human HeLa cells assessed as abnormalities in spleen at 10 to 20 mg/kg, ip administered on every 2 days measured after 18 days by H and E staining based analysis; type: organism-based; settings: in vivo, 432 h, dose 10-20 mg/kg, time 18 day
[8] = molecular target: Chloride; assay: Binding affinity to chloride anions assessed as anionophoric activity in egg-yolk L-alpha-phosphatidylcholine liposome model measured per lipid by pyranine-based fluorescent assay
[9] = tested on: Chloride; assay: Binding affinity to chloride anions in human HeLa cells assessed as chloride influx up to 5 uM incubated for 2 hrs by MQAE staining based analysis; type: cell-based
[10] = tested on: HeLa; assay: Cytotoxicity against human HeLa cells assessed as decrease in cell viability at 0.01 to 10 uM pretreated with DFO followed by compound addition by MTT assay; type: functional, cell-based; settings: dose 0.01-10 µM
[11] = Aqueous solubility of compound; type: physicochemical
[12] = AUC (0 to infinity) in male CD-1 mouse at 1 mg/kg, iv measured for 0.083 to 48 hrs by HPLC/MS/MS analysis; type: ADME, organism-based; settings: in vivo, time 0.083-48 hrs
[13] = tested on: HeLa; assay: Cytotoxicity against human HeLa cells assessed as decrease in ratio of green to red fluorescence at 0.1 to 1 uM incubated for 24 hrs by calcein-AM/7-AAD staining based analysis; type: functional, cell-based; settings: dose 0.1-1 µM
[14] = tested on: HeLa; assay: Antitumor activity against human HeLa cells xenografted in male Balb/C nude mouse assessed as average tumor size at 10 mg/kg, ip administered on every 2 days measured after 18 days (reference value: 1995.1 mm3); type: functional; settings: time 18 day
[15] = molecular target: Tubulin beta (Homo sapiens) (UniProt P68371+Q9H4B7+Q13509+P04350+Q3ZCM7+P07437+Q13885+Q9BVA1+Q9BUF5+A6NNZ2); assay: Induction of beta-tubulin degradation in human HeLa cells at 1 uM preincubated with MG132 followed by compound addition measured after 24 hrs by immunoblotting analysis; type: cell-based
[16] = tested on: HeLa; assay: Induction of mitochondrial membrane permeability in human HeLa cells assessed as red fluorescence at 1 uM incubated for 24 hrs by JC-1 staining based analysis (reference value: 98.5 %); type: functional
[17] = tested on: HeLa; assay: Induction of cell cycle arrest in human HeLa cells assessed as accumulation of cells at S phase at 1 uM incubated for 24 hrs by PI staining based flow cytometry relative to control; type: functional
[18] = tested on: Chloride; assay: Binding affinity to chloride anions assessed as binding constant at 1:1 stoichiometry of compound and tetrabutylammonium chloride salt by 1H NMR spectroscopy
[19] = tested on: HeLa; assay: Induction of lipid peroxidation in human HeLa cells assessed as decrease in GSH level incubated for 12 hrs by absorbance based assay; type: functional, cell-based; settings: dose 0.1-1 µM
[20] = tested on: HeLa; assay: Induction of ferroptosis in human HeLa cells assessed as increase in Bax level at 0.1 to 1 uM incubated for 24 hrs by immunoblotting analysis; type: functional, cell-based; settings: dose 0.1-1 µM
[21] = Toxicity in male Balb/C nude mouse xenografted with human HeLa cells assessed as abnormalities in kidney at 10 to 20 mg/kg, ip administered on every 2 days measured after 18 days by H and E staining based analysis; type: organism-based; settings: in vivo, 432 h, dose 10-20 mg/kg, time 18 day
[22] = Drug concentration in brain of C57BL/6 mouse at 5 mg/kg, iv measured after 4 hrs by HPLC/MS/MS analysis; type: ADME, organism-based; settings: read-out: Ct
[23] = Cmax in male CD-1 mouse at 1 mg/kg, iv measured for 0.083 to 48 hrs by HPLC/MS/MS analysis; type: ADME, organism-based; settings: in vivo, time 0.083-48 hrs
[24] = tested on: HeLa; assay: Induction of lipid peroxidation in human HeLa cells assessed as increase in ROS generation incubated for 24 hrs by DCFH-DA probe based fluorescence microscopy; type: functional, cell-based; settings: dose 0.1-1 µM
[25] = molecular target: Chloride; assay: Binding affinity to chloride anions assessed as chloride efflux in egg-yolk L-alpha-phosphatidylcholine liposome model measured per lipid in presence of intravesicular NaCl/extravesicular NaNO3 by chloride ion selective electrode technique
[26] = molecular target: Tubulin (Homo sapiens) (UniProt P68371+Q9H4B7+P0DPH7+P68366+Q13509+Q71U36+P04350+Q3ZCM7+P07437+P68363+Q9BQE3+Q6PEY2+Q13885+Q9BVA1+Q9BUF5); assay: Induction of tubulin degradation in human HeLa cells assessed as disruption of tubulin network at 10 uM incubated for 16 hrs by immunofluorescence based analysis; type: cell-based
[27] = tested on: Chloride; assay: Binding affinity to chloride anions assessed as chloride efflux in egg-yolk L-alpha-phosphatidylcholine liposome model harboring intravesicular NaCl/extravesicular Na2SO4
[28] = Half life in male CD-1 mouse at 1 mg/kg, ip measured for 0.083 to 48 hrs by HPLC/MS/MS analysis; type: ADME, organism-based; settings: in vivo, time 0.083-48 hrs
[29] = tested on: HeLa; assay: Induction of mitochondrial membrane permeability in human HeLa cells assessed as red fluorescence at 0.5 uM incubated for 24 hrs by JC-1 staining based analysis (reference value: 98.5 %); type: functional
[30] = tested on: Chloride; assay: Binding affinity to chloride anions assessed as chloride efflux in egg-yolk L-alpha-phosphatidylcholine liposome model harboring intravesicular KCl/extravesicular NaNO3
[31] = tested on: Chloride; assay: Binding affinity to chloride anions in human HeLa cells assessed as increase in green fluorescence in cytoplasm at 5 uM incubated for 6 hrs by AO staining based analysis; type: cell-based
[32] = MRT (0 to infinity) in male CD-1 mouse at 1 mg/kg, iv measured for 0.083 to 48 hrs by HPLC/MS/MS analysis; type: ADME, organism-based; settings: in vivo, time 0.083-48 hrs
[33] = Cmax in male CD-1 mouse at 1 mg/kg, ip measured for 0.083 to 48 hrs by HPLC/MS/MS analysis; type: ADME, organism-based; settings: in vivo, time 0.083-48 hrs
[34] = Tmax in male CD-1 mouse at 1 mg/kg, ip measured for 0.083 to 48 hrs by HPLC/MS/MS analysis; type: ADME, organism-based; settings: in vivo, time 0.083-48 hrs
[35] = tested on: HeLa; assay: Induction of cell cycle arrest in human HeLa cells assessed as accumulation of cells at S phase at 0.5 uM incubated for 24 hrs by PI staining based flow cytometry relative to control; type: functional
[36] = tested on: HeLa; assay: Induction of cell cycle arrest in human HeLa cells assessed as accumulation of cells at S phase at 0.1 uM incubated for 24 hrs by PI staining based flow cytometry relative to control; type: functional

In the case of Fc1cc(-c2nc3c(C(F)(F)F)cc(C(F)(F)F)cc3[nH]2)cc(-c2nc3c(C(F)(F)F)cc(C(F)(F)F)cc3[nH]2)c1, the Activity [1] is reported as 44.9%, the Activity [2] is reported as “inactive” and the AUC(0-t) [3] is reported as 17500 ng·h/mL. For the same compound, the Activity [4] was “Active”, the Activity [5] was “inactive” and the Activity [6] was “Active”. The Activity [7] was “Non-toxic”, the EC50 [8] was 4.16 10^-2mol% and the Activity [9] was “Active”. The Activity [10] was “inactive”, the solubility [11] was 200 µg/mL (≈ 333 µM) and the AUC(0-inf) [12] was 17800 ng·h/mL. The Activity [13] was “Active”, the Activity [14] was 850.9 mm3 and the Activity [15] was “inactive”. It also gave an Activity [16] of 33.2%, an Activity [17] of 48% and a K [18] of 5250 M⁻¹. For the same compound, the Activity [19] was “Dose-dependent-effect”, the Activity [20] was “Active” and the Activity [21] was “Non-toxic”. The concentration at 4 h [22] was 1300 nM, the Cmax [23] was 22700 ng/mL and the Activity [24] was “Dose-dependent-effect”. For the same compound, the EC50 [25] was 0.64 mol%, the Activity [26] was “Active” and the Activity [27] was “inactive”. The half-life [28] was 19.9 h, the Activity [29] was 55.1% and the Activity [30] was “Active”. The Activity [31] was “Active; The Result Indicates That Compound Basify Acidic Organelles”, the MRT inf [32] was 3.14 h and the Cmax [33] was 270 ng/mL. It also gave a Tmax [34] of 3.5 h, an Activity [35] of 36% and an Activity [36] of 22%.
